Consider 5 compounds from ChEMBL document CHEMBL1129260, “Evaluation of the stability and animal biodistribution of gadolinium (III) benzylamine-derivatized diethylenetriaminepentaacetic acid” (J Med Chem, 1996).

The data set can be described thus: Gadolinium(III) stability constants (log K value) for the compound polyamino carboxylate derivative.
For the compound `CCCOC(=O)CN(CCN(CCN(CC(=O)O)CC(=O)O)CC(=O)O)CC(=O)O`, the “log K Gd(III) stability constant” value turned out to be 18.9. On to `CCN(CCN(CC(=O)O)CC(=O)O)CCN(CC(=O)O)CC(=O)O`, for which the “log K Gd(III) stability constant” value was determined as 17.8. As for `O=C(O)CN(CCN(CC(=O)O)CC(=O)O)CCN(CC(=O)O)C(COCc1ccccc1)C(=O)O` (stereo not given), the “log K Gd(III) stability constant” value was 22.6. As for `CCCNC(=O)CN(CCN(CCN(CC(=O)O)CC(=O)O)CC(=O)O)CC(=O)O`, the figure is 19.7; as for `O=C(O)CN(CCN(CC(=O)O)CC(=O)O)CCN(CC(=O)O)CC(=O)O` [PENTETIC ACID], 22.4.
